From patent US20250387369A1 (priority 2022, published 2025)

Assays:
[1] = tested on: Ebola virus-derived trVLP; assay: microbe, parasite or virus in culture; format: cell-based; conditions: Zaire ebolavirus, Huh-7, 48 h
[2] = tested on: type A influenza virus (H1N1 subtype); assay: microbe, parasite or virus in culture; format: cell-based; conditions: H1N1, Calu-3, 48 h

CCC(CC)COC(=O)[C@H](C)N[P@](=O)(OC[C@H]1O[C@@](C#N)(c2ccc3c(N)ncnn23)[C@H](O)[C@@H]1O)Oc1ccccc1 [Remdesivir]
IC50 [1]: 0.1 µM

NC(=O)c1nc(F)c[nH]c1=O [Favipiravir]
IC50 [2]: 9.5 µM
